Data on three molecules can be found in paper PMC10788923 (Journal of Medicinal Chemistry, 2023).

Broadly, the Cmax is the maximum level reached in the sampled fluid or tissue. The term Tmax denotes the time from dosing to the highest level.

A short description of series [1]: Mouse liver microsome stability. The following applies: 0.5 mg protein/mL, 37 °C. The format is in vitro ADME. (Liver microsomes are a subcellular fraction often used to study metabolism.)
Series [2] can be described thus: In vivo pharmacokinetic study, oral dosing. Details: species or system male C57BL/6J mice.
Setting [3] is: mouse, liver microsomes, read-out: MLM t1/2.
The mark [4] stands for this setting: male, C57BL/6J, mouse plasma, PO 10 mg/kg, second number = SD.

As for `[O-][n+]1cccc(CCOc2ccc(Cl)c(C3CC3)c2)c1` [Compound 41, 3-(2-(4-Chloro-3-cyclopropylphenoxy)ethyl)pyridine 1-oxide], in series [1] (setting [3]), the half-life at 1 h, 1 µM was 7.2 min.
With `O=c1cccc(CCOc2ccc(Cl)cc2)[nH]1` [Compound 60, 6-(2-(4-Chlorophenoxy)ethyl)pyridin-2-ol], the half-life at 1 h, 1 µM in series [1] (setting [3]) was 11.7 min.
Molecule `[O-][n+]1cc(O)cc(CCCc2ccc(Cl)c(C(F)(F)F)c2)c1` [Compound 69, 3-(3-(4-Chloro-3-(trifluoromethyl)phenyl)propyl)-5-hydroxypyridine 1-oxide] displayed a half-life in series [2] (male, C57BL/6J, plasma, mouse, oral dosing 10 mg/kg) of 53 min. Besides, in series [2] (male, C57BL/6J, mouse plasma, PO 10 mg/kg), the highest level (Cmax at 24 h) was 310 nM. Also, in series [2] (setting [4]), the Tmax at 24 h was 25 min and the half-life at 24 h was 53.3 min. In series [2] (male, C57BL/6J, mouse plasma, PO 10 mg/kg, second number = SD, read-out: MRT0-inf), the MRT inf at 24 h came to 81 min. For the same molecule, in series [2] (mouse, oral dosing 10 mg/kg), the “oral bioavailability (in words)” value is “orally bioavailable”. Besides, the “MLM t1/2” value in series [1] (mouse liver microsomes, 1 μM) is recorded as 104.7 min. Besides, the half-life at 1 μM in series [1] (setting [3]) turned out to be 105 min.
